In US11685746B2, “Heteroaryl compounds for treating Huntington's disease” (PTC THERAPEUTICS, INC., priority 2018, dated 2023) one finds IC50 data, which are given here for 23 molecules.

A value given as a limit tells only on which side of the number the result lay.

In this assay the test system is Endogenous Huntingtin Protein. Put plainly: Endogenous Huntingtin Protein Assay (MSD plates, MW1 or MAB2166 capture antibody). The following applies: Table 1. It is filed as cell-based. Put shortly: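 Sandwich MSD immunoassay: plates were coated overnight at 4° C with MW1 (expanded polyQ) or MAB2166 capture antibody at 1 μg/mL, then blocked with 5% BSA. Samples were bound overnight at 4° C, followed by rabbit mAb #5656S and SULFO-TAG anti-rabbit detection, each at 0.25 μg/mL for 1 h at room temperature. Signal was read by electrochemiluminescence.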

`CCCN1CCC(N(C)c2nc3sc(-c4ncc(-c5cn[nH]c5)cc4O)nc3s2)CC1` [Compound 206, 2-{5-[methyl(1-propylpiperidin-4-yl)amino][1,3]thiazolo[5,4-d][1,3]thiazol-2-yl}-5-(1H-pyrazol-4-yl)pyridin-3-ol] came in with an IC50 not above 100 nM. With `CCN1CCC(N(C)c2nc3sc(-c4ncc(-c5cn[nH]c5)cc4O)nc3s2)CC1` [Compound 207, 2-{5-[(1-ethylpiperidin-4-yl)(methyl)amino][1,3]thiazolo[5,4-d][1,3]thiazol-2-yl}-5-(1H-pyrazol-4-yl)pyridin-3-ol] the figure was not above 100 nM; with `Oc1cc(-c2cn[nH]c2)ccc1-c1nc2sc(C3CCNCC3)nc2s1` [Compound 208, 2-[5-(piperidin-4-yl)[1,3]thiazolo[5,4-d][1,3]thiazol-2-yl]-5-(1H-pyrazol-4-yl)phenol], 1000 to 3000 nM. The figure for `Oc1cc(-c2cn[nH]c2)cnc1-c1nc2sc(N3CC4(CCNCC4)C3)nc2s1` [Compound 209, 2-[5-(2,7-diazaspiro[3.5]nonan-2-yl)[1,3]thiazolo[5,4-d][1,3]thiazol-2-yl]-5-(1H-pyrazol-4-yl)pyridin-3-ol] is not above 100 nM; for `CN(c1nc2sc(-c3ncc(-c4ccc5nncn5c4)cc3O)nc2s1)C1CCNCC1` [Compound 210, 2-{5-[methyl(piperidin-4-yl)amino][1,3]thiazolo[5,4-d][1,3]thiazol-2-yl}-5-([1,2,4]triazolo[4,3-a]pyridin-6-yl)pyridin-3-ol] it is 3000 to 9000 nM; for `CN1C[C@@H]2CN(c3nc4sc(-c5ccc(-c6cn[nH]c6)cc5O)nc4s3)C[C@@H]2C1` [Compound 211, 2-{5-[(3aR,6aS)-5-methylhexahydropyrrolo[3,4-c]pyrrol-2(1H)-yl][1,3]thiazolo[5,4-d][1,3]thiazol-2-yl}-5-(1H-pyrazol-4-yl)phenol] it is 1000 to 3000 nM. With `CN(c1nc2sc(-c3ncc(-n4cncn4)cc3O)nc2s1)C1CCNCC1` [Compound 212, 2-{5-[methyl(piperidin-4-yl)amino][1,3]thiazolo[5,4-d][1,3]thiazol-2-yl}-5-(1H-1,2,4-triazol-1-yl)pyridin-3-ol] the figure was 100 to 500 nM; with `CN(c1nc2sc(-c3ncc(-c4cn[nH]c4)cc3O)nc2s1)[C@H]1CCNC1` [Compound 213, 2-(5-{methyl[(3S)-pyrrolidin-3-yl]amino}[1,3]thiazolo[5,4-d][1,3]thiazol-2-yl)-5-(1H-pyrazol-4-yl)pyridin-3-ol], not above 100 nM; with `CN(c1nc2sc(-c3ncc(-n4nccn4)cc3O)nc2s1)C1CCNCC1` [Compound 214, 2-{5-[methyl(piperidin-4-yl)amino][1,3]thiazolo[5,4-d][1,3]thiazol-2-yl}-5-(2H-1,2,3-triazol-2-yl)pyridin-3-ol], 500 to 1000 nM. As for `CN(c1nc2sc(-c3ncc(-n4ccnn4)cc3O)nc2s1)C1CCNCC1` [Compound 215, 2-{5-[methyl(piperidin-4-yl)amino][1,3]thiazolo[5,4-d][1,3]thiazol-2-yl}-5-(1H-1,2,3-triazol-1-yl)pyridin-3-ol], the IC50 lay in the range of 100 to 500 nM.

As for `CN(c1nc2sc(-c3ncc(-c4cnsc4)cc3O)nc2s1)C1CCNCC1` [Compound 216, 2-{5-[methyl(piperidin-4-yl)amino][1,3]thiazolo[5,4-d][1,3]thiazol-2-yl}-5-(1,2-thiazol-4-yl)pyridin-3-ol], the IC50 was not above 100 nM. The figure for `CN1CCC(N(C)c2nc3sc(-c4ncc(-c5cn[nH]c5)cc4O)nc3s2)CC1` [Compound 217, 2-{5-[methyl(1-methylpiperidin-4-yl)amino][1,3]thiazolo[5,4-d][1,3]thiazol-2-yl}-5-(1H-pyrazol-4-yl)pyridin-3-ol] is not above 100 nM; for `CCN(c1nc2sc(-c3ncc(-c4cn[nH]c4)cc3O)nc2s1)C1CCN(C)CC1` [Compound 218, 2-{5-[ethyl(1-methylpiperidin-4-yl)amino][1,3]thiazolo[5,4-d][1,3]thiazol-2-yl}-5-(1H-pyrazol-4-yl)pyridin-3-ol] it is not above 100 nM; for `Cc1n[nH]cc1-c1cnc(-c2nc3sc(N(C)C4CCNCC4)nc3s2)c(O)c1` [Compound 219, 2-{5-[methyl(piperidin-4-yl)amino][1,3]thiazolo[5,4-d][1,3]thiazol-2-yl}-5-(3-methyl-1H-pyrazol-4-yl)pyridin-3-ol] it is not above 100 nM. With `CN(c1nc2sc(-c3ncc(-c4cn[nH]c4Cl)cc3O)nc2s1)C1CCNCC1` [Compound 220, 5-(5-chloro-1H-pyrazol-4-yl)-2-{5-[methyl(piperidin-4-yl)amino][1,3]thiazolo[5,4-d][1,3]thiazol-2-yl}pyridin-3-ol] the figure was not above 100 nM; with `Cc1cn(-c2cnc(-c3nc4sc(N(C)C5CCNCC5)nc4s3)c(O)c2)cn1` [Compound 221, 5-(4-methyl-1H-imidazol-1-yl)-2-{5-[methyl(piperidin-4-yl)amino][1,3]thiazolo[5,4-d][1,3]thiazol-2-yl}pyridin-3-ol], not above 100 nM. The molecule `Cc1ncc(-c2cnc(-c3nc4sc(N(C)C5CCNCC5)nc4s3)c(O)c2)s1` [Compound 222, 2-{5-[methyl(piperidin-4-yl)amino][1,3]thiazolo[5,4-d][1,3]thiazol-2-yl}-5-(2-methyl-1,3-thiazol-5-yl)pyridin-3-ol] had an IC50 not above 100 nM. The figure for `Cc1ncc(-c2cnc(-c3nc4sc(N(C)C5CCNCC5)nc4s3)c(O)c2)o1` [Compound 223, 5-(2-methyl-1,3-oxazol-5-yl)-2-{5-[methyl(piperidin-4-yl)amino][1,3]thiazolo[5,4-d][1,3]thiazol-2-yl}pyridin-3-ol] is not above 100 nM; for `Cc1cc(-c2cnc(-c3nc4sc(N(C)C5CCNCC5)nc4s3)c(O)c2)cnn1` [Compound 224, 2-{5-[methyl(piperidin-4-yl)amino][1,3]thiazolo[5,4-d][1,3]thiazol-2-yl}-5-(6-methylpyridazin-4-yl)pyridin-3-ol] it is not above 100 nM. The figure for `CN(c1nc2sc(-c3ncc(-c4ccnnc4)cc3O)nc2s1)C1CCNCC1` [Compound 225, 2-{5-[methyl(piperidin-4-yl)amino][1,3]thiazolo[5,4-d][1,3]thiazol-2-yl}-5-(pyridazin-4-yl)pyridin-3-ol] is not above 100 nM. With `CN(c1nc2sc(-c3cnc(-c4cn[nH]c4)c4[nH]ccc34)nc2s1)C1CCNCC1` [Compound 226, N-methyl-N-(piperidin-4-yl)-5-[7-(1H-pyrazol-4-yl)-1H-pyrrolo[2,3-c]pyridin-4-yl][1,3]thiazolo[5,4-d][1,3]thiazol-2-amine] the figure was not above 100 nM; with “N-methyl-N-[(2S,4R)-2-methylpiperidin-4-yl]-5-[4-(1H-pyrazol-4-yl)-1H-pyrrolo[2,3-c]pyridin-7-yl][1,3]thiazolo[5,4-d][1,3]thiazol-2-amine [Compound 71]”, 100 to 500 nM; with “N-methyl-N-[(2S,4R)-2-methylpiperidin-4-yl]-5-[4-(1H-pyrazol-4-yl)-1H-pyrrolo[2,3-c]pyridin-7-yl][1,3]thiazolo[5,4-d][1,3]thiazol-2-amine [Compound 72]”, not above 100 nM.

Usually IC50 stands for the concentration that inhibits the measured activity by half. A higher IC50 goes with weaker potency in that assay.
